Values joined by “and” are separate entries in the source; they are usually repeats but may differ in a detail not shown here. Equal values may be shown once.
Tests used:
[1] = Exposure-safety: logistic regression against model-predicted AUC0–24; type: in vivo, human; details: for predicted incidence of all grade total bilirubin elevation: median baseline total bilirubin 6.84 μmol/L; for AUC(0-t): human, serum, oral
[2] = human, in vivo
BCR-ABL transcript level = assay: Exposure-efficacy: BCR-ABL ratio and MMR at 12 months by observed Cmin quartile; type: in vivo, human
[3] = Population PK analysis, nonlinear mixed-effect modeling
clinical = details: human, serum, oral
OCT1 = details: cited from earlier work
[4] = test system: efflux transporters (ABCB1, ABCG2); details: CML cells; cited from earlier work
[5] = population mean (standard error)

In the case of `Cc1cn(-c2cc(NC(=O)c3ccc(C)c(Nc4nccc(-c5cccnc5)n4)c3)cc(C(F)(F)F)c2)cn1` [nilotinib], the “predicted incidence of all grade abnormalities, hemoglobin” value ([1]; AUC0–24 16 μg·h/mL) is reported as 31.7%, the “predicted incidence of all grade abnormalities, lipase” value ([1]; AUC0–24 16 μg·h/mL) is reported as 17.4% and the “predicted incidence of all grade total bilirubin elevation” value ([1]; AUC0–24 16 μg∙h/mL) is reported as 29.4%. For the same compound, the “predicted incidence of all grade abnormalities, hemoglobin” value ([1]; AUC0–24 24 μg·h/mL) was 36.4%, the “predicted incidence of all grade abnormalities, lipase” value ([1]; AUC0–24 24 μg·h/mL) was 23.8% and the “predicted incidence of all grade total bilirubin elevation” value ([1]; AUC0–24 24 μg∙h/mL) was 46.5%. For the same compound, the “predicted incidence of all grade abnormalities, hemoglobin” value ([1]; AUC0–24 32 μg·h/mL) was 39.9%, the “predicted incidence of all grade abnormalities, lipase” value ([1]; AUC0–24 32 μg·h/mL) was 29.3% and the “predicted incidence of all grade total bilirubin elevation” value ([1]; AUC0–24 32 μg∙h/mL) was 59.5%. For the same compound, the AUC(0-t) [1] was 25900 ng·h/mL, the AUC(0-t) ([1]; male, 300 mg) was 24000 ng·h/mL and the “higher exposure in 400 mg twice-daily arm than in 300 mg twice-daily arm” value [2] was 11.5%. The “MMR difference vs Q1 (95% CI)” value (BCR-ABL transcript level; Q2/3 829–1,569 ng/mL vs Q1) was 1.7 (−10.4, 13.8), the “MMR difference vs Q1 (95% CI)” value (BCR-ABL transcript level; Q4 >1,569 ng/mL vs Q1) was 4.6 (−9.3, 18.6) and the “MMR difference vs Q2/3 (95% CI)” value (BCR-ABL transcript level; Q4 >1,569 ng/mL vs Q2/3) was 2.9 (−9.0, 14.8). For the same compound, the “MMR at 12 months” value (BCR-ABL transcript level; average Cmin Q1 <829 ng/mL, evaluable patients n observed 96) was 45 (46.9) n (%), the “MMR at 12 months” value (BCR-ABL transcript level; average Cmin Q2/3 829–1,569 ng/mL, evaluable patients n observed 208) was 101 (48.6) n (%) and the “MMR at 12 months” value (BCR-ABL transcript level; average Cmin Q4 >1,569 ng/mL, evaluable patients n observed 101) was 52 (51.5) n (%). For the same compound, the “predicted decrease in CL” value ([3]; AST increase from ULN to 1.5 × ULN) was 1%, the “predicted decrease in CL” value ([3]; AST increase from ULN to 2 × ULN) was 3% and the “σ1, proportional random error” value ([3]; estimate (standard error)) was 29.8 (0.917) %. The “σ2, additive random error” value ([3]; estimate (standard error)) was 110 (17.4) ng/mL, the “Interindividual variability of CL” value ([3]; final model, % (SE)) was 37.6% and 37.6 (1.4) % and the “Interindividual variability of V1” value ([3]; final model, % (SE)) was 79.2% and 79.2 (14.2) %. The “Interindividual variability of V2” value ([3]; final model, % (SE)) was 98.9% and 98.9 (19.7) %, the “interindividual variability of CL before addition of significant covariates” value ([3]; model without covariates) was 40.0% and the “D1, zero-order input duration” value [3, 5] was 9.88 (0.112) h. For the same compound, the “V2, volume of distribution of peripheral compartment” value [3, 5] was 181 (25.4) L, the “Lag, lag time for absorption” value ([3]; population mean, fixed) was 0.67 h (fixed) and the “lower bioavailability or systemic exposure in male than female patients” value ([3]; same dose level) was “approximately 10%”. The “predicted decrease in CL” value ([3]; total bilirubin increase from ULN to 1.5 × ULN) was 12%, the “predicted decrease in CL” value ([3]; total bilirubin increase from ULN to 2 × ULN) was 23% and the “predicted decrease in CL” value ([3]; total bilirubin increase from ULN to 2.5 × ULN) was 32%. For the same compound, the Vd (clinical) was 58 L, the clearance (clinical) was 350 mL/min and the “dependence of movement into CML cells on influx transporter OCT1” value (OCT1) was “independent of the influx transporter OCT1”. The “role of efflux transporters (ABCB1, ABCG2) in cellular retention” value [4] was “none of them appear to play an important role”.
